pIC50: −log10 of the molar value.
How the values were obtained:
human KDR = target: T1, human KDR (Homo sapiens, UniProt P35968); assay: Inhibitory activity against KDR phosphorylation by ELISA; assay type: cell-based; conditions: NIH 3T3 cells transfected with human KDR, VEGF 100 ng/ml
T1 construct: expressed in transfected cells; host or cells: NIH 3T3 cells (Sawano A et al., Cell Growth & Differentiation 7, 213-221 (1996))

[1] = system: activation of MAPK within vascular endothelial cells induced by VEGF stimulation; assay: Inhibitory activity against activation of MAPK within vascular endothelial cells induced by VEGF stimulation; assay type: cell-based; conditions: Endothelial cell; human funicular venous vascular endothelial cells, VEGF 50 ng/ml, phosphorylated MAPK by immunoblotting
Method: Measurement of Inhibitory Activity Against Activation of MAPK Within Vascular Endothelial Cells Induced by VEGF Stimulation
Human funicular venous vascular endothelial cells (purchased from Chronetics) were cultured in an EGM-2 medium (purchased from Chronetics) within an incubator containing 5% carbon dioxide until 50 to 70% confluent, and the culture was inoculated into wells, containing the same medium, in a 96-well flat-bottom plate in an amount of 1.5×10^5 per well. After cultivation at 37° C. overnight, the medium was replaced by an EBM-2 medium containing 0.5% fetal calf serum (purchased from Chronetics), followed by cultivation for 24 hr. A solution of the test compound in dimethyl sulfoxide was added to each well, and the cultivation was continued at 37° C. for additional one hr. A human recombinant vascular endothelial growth factor (hereinafter abbreviated to “VEGF”) was added to a final concentration of 50 ng/ml, and the stimulation of cells was carried out at 37° C. for 8 min. The medium was removed, the cells were washed with phosphate buffered saline (pH 7.4), and 10 μl of a solubilization buffer (Tris buffered saline (pH 7.4) containing 1% Triton X100, 2 mM sodium orthovanadylate, and 1 mM disodium ethylenediaminetetraacetate) was then added thereto. The mixture was shaken at 4° C. for one hr to solubilize the cells. An equal amount of Tris buffered saline containing 1% sodium laurylsulfate was added to and thoroughly mixed with the solution. This solution (2 μl) was adsorbed on a PVDF filter by dot blotting, and this filter was subjected to immunoblotting with anti-tyrosine phosphorylated MAPK antibody (purchased from Daiichi Pure Chemicals).
The level of phosphorylated MAPK was quantitatively determined with a densitometer, and the percentage phosphorylated MAPK in the presence of the test compound was determined by presuming the level of phosphorylated MAPK with the addition of VEGF in the absence of the test compound to be 100% and the level of phosphorylated MAPK in the absence of the test compound and VEGF to be 0%. The test compound concentration (IC50) necessary for inhibiting 50% of the activation of MAPK was calculated based on the percentage of phosphorylated MAPK.

Human glioma cells GL07 = assay: Antitumor effect on human glioma cells (GL07) transplanted into nude mice; assay type: in vivo; conditions: Mus musculus, Glioma cell, 216 h, GL07, oral, 20 mg/kg once a day for 9 days, read-out: TGIR, % (tumor growth inhibition rate)
How it was run: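 GL07 xenografts in nude mice, grouped (n=4) at ~100 mm^3 tumor volume. Test compound 20 mg/kg p.o. or i.p. once daily for 9 days; vehicle controls. TGIR = (1−Tx/Cx)×100 from tumor volumes normalized to day-of-start volume = 1.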

T1 sequence (P35968 20-1356): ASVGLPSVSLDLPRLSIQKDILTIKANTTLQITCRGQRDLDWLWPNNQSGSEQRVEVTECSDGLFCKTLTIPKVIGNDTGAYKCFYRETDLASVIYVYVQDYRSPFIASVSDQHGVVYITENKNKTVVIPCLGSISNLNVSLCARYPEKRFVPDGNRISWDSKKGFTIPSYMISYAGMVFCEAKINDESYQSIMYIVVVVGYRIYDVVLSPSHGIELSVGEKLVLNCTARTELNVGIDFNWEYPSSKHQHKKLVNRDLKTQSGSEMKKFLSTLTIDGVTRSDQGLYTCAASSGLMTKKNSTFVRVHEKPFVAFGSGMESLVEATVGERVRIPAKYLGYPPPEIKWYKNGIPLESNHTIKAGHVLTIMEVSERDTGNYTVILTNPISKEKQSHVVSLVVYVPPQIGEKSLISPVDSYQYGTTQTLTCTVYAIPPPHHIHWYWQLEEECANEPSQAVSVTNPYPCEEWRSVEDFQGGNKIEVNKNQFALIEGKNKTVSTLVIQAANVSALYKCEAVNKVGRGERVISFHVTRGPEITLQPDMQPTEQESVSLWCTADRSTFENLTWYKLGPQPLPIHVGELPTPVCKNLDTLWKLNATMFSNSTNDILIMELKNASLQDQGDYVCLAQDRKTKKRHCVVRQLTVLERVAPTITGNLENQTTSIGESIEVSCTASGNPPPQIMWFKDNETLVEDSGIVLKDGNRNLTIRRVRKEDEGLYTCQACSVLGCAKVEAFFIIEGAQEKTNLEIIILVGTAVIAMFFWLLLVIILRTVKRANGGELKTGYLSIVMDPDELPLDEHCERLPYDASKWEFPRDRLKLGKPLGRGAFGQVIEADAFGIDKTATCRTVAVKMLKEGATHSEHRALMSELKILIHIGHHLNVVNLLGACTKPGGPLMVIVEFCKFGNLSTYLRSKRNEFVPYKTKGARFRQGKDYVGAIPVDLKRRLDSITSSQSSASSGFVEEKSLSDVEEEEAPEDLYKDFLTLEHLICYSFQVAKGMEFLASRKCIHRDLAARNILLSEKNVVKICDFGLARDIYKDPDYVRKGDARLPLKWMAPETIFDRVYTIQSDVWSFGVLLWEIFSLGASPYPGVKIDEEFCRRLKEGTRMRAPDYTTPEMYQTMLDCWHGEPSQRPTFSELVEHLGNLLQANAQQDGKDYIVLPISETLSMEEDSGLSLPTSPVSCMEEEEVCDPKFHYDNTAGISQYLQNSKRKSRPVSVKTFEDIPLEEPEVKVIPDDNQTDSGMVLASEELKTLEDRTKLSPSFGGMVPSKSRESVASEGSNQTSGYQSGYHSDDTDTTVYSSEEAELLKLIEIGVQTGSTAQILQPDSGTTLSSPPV

| Compound | pIC50 (human KDR) | pIC50 [1] | inhibition in vivo at 20 mg/kg (Human glioma cells GL07) [%] |
| --- | --- | --- | --- |
| CCCNC(=O)Nc1ccc(Oc2ncnc3cc(OC)c(OC)cc23)cc1 [Example 64, N-{4-[(6,7-Dimethoxy-4-quinazolinyl)oxy]-phenyl}-N′-propylurea] | 6.82 | 7.38 | 37 |
| CCCCCNC(=O)Nc1ccc(Oc2ncnc3cc(OC)c(OC)cc23)cc1 [Example 66, N-{4-[(6,7-Dimethoxy-4-quinazolinyl)oxy]-phenyl}-N′-pentylurea] | 7.82 | 7.68 | 26 |
| CCC(C)NC(=O)Nc1ccc(Oc2ncnc3cc(OC)c(OC)cc23)cc1 (stereo not drawn) [Example 67, N-(sec-Butyl)-N′-{4-[(6,7-dimethoxy-4-quinazolinyl)oxy]phenyl}urea] | 7.20 | 6.46 | 30 |
| C=CCNC(=O)Nc1ccc(Oc2ncnc3cc(OC)c(OC)cc23)cc1 [Example 68, N-Allyl-N′-{4-[(6,7-Dimethoxy-4-quinazolinyl)oxy]phenyl}urea] | 7.62 | 7.35 | 57 |
| C#CCNC(=O)Nc1ccc(Oc2ncnc3cc(OC)c(OC)cc23)cc1 [Example 69, N-{4-[(6,7-Dimethoxy-4-quinazolinyl)-oxy]phenyl}-N′-(2-propynyl)urea] | 7.19 | 7.17 | 26 |
| COc1cc2ncnc(Oc3ccc(NC(=O)NCc4ccccn4)cc3)c2cc1OC [Example 71, N-{4-[(6,7-Dimethoxy-4-quinazolinyl)oxy]-phenyl}-N′-(2-pyridylmethyl)urea] | 6.46 | 6.12 | 67 |
| COc1cc2ncnc(Oc3ccc(NC(=O)Nc4ccc(F)cc4)cc3)c2cc1OC [Example 73, N-{4-[(6,7-Dimethoxy-4-quinazolinyl)oxy]-phenyl}-N′-(4-fluorophenyl)urea] | 9.00 | > 8.70 | 34 |
| COc1cc2ncnc(Oc3ccc(NC(=O)Nc4ccccc4C)cc3)c2cc1OC [Example 74, N-{4-[(6,7-Dimethoxy-4-quinazolinyl)oxy]-phenyl}-N′-(2-methylphenyl)urea] | 7.96 | 8.22 | 28 |
| COc1ccccc1NC(=O)Nc1ccc(Oc2ncnc3cc(OC)c(OC)cc23)cc1 [Example 75, N-{4-[(6,7-Dimethoxy-4-quinazolinyl)oxy]-phenyl}-N′-(2-methoxyphenyl)urea] | 8.85 | 8.92 |  |
| CCNC(=O)Nc1ccc(Oc2ncnc3cc(OC)c(OC)cc23)cc1Cl [Example 76, N-{2-chloro-4-[(6,7-dimethoxy-4-quinazolinyl)-oxy]phenyl}-N′-ethylurea] | 8.46 | 8.10 |  |
| CCCCNC(=O)Nc1ccc(Oc2ncnc3cc(OC)c(OC)cc23)cc1Cl [Example 77, N-Butyl-N′-{2-chloro-4-[(6,7-dimethoxy-4-quinazolinyl)oxy]phenyl}urea] | 8.22 | 7.15 | 26 |
| CCCCCNC(=O)Nc1ccc(Oc2ncnc3cc(OC)c(OC)cc23)cc1Cl [Example 78, N-{2-Chloro-4-[(6,7-dimethoxy-4-quinazolinyl)oxy]phenyl}-N′-pentylurea] | 8.47 | 8.39 | 21 |
| CCC(C)NC(=O)Nc1ccc(Oc2ncnc3cc(OC)c(OC)cc23)cc1Cl (stereo not drawn) [Example 79, N-(sec-Butyl)-N′-{2-chloro-4-[(6,7-dimethoxy-4-quinazolinyl)oxy]phenyl}urea] | 7.74 | 7.52 | 28 |
| C=CCNC(=O)Nc1ccc(Oc2ncnc3cc(OC)c(OC)cc23)cc1Cl [Example 80, N-Allyl-N′-{2-chloro-4-[(6,7-dimethoxy-4-quinazolinyl)oxy]phenyl}urea] | 8.57 | 7.89 | 52 |
| COc1cc2ncnc(Oc3ccc(NC(=O)NCc4ccc(F)cc4F)c(Cl)c3)c2cc1OC [Example 82, N-{2-Chloro-4-[(6,7-dimethoxy-4-quinazolinyl)oxy]phenyl}-N′-(2,4-difluorobenzyl)urea] | 8.08 | 8.42 | 27 |
| COc1cc2ncnc(Oc3ccc(NC(=O)N(C)c4ccccn4)c(Cl)c3)c2cc1OC [Example 83] | 6.08 | < 6.00 | 31 |
| COc1cc2ncnc(Oc3ccc(NC(=O)Nc4ccc(F)cc4)c(Cl)c3)c2cc1OC [Example 85, N-{2-Chloro-4-[(6,7-dimethoxy-4-quinazolinyl)oxy]phenyl}-N′-(4-fluorophenyl)urea] | 9.30 | 9.15 | 26 |
| COc1ccccc1NC(=O)Nc1ccc(Oc2ncnc3cc(OC)c(OC)cc23)cc1Cl [Example 86, N-{2-Chloro-4-[(6,7-dimethoxy-4-quinazolinyl)oxy]phenyl}-N′-(2-methoxyphenyl)urea] | 8.82 | 9.22 |  |
| COc1cc2ncnc(Oc3ccc(NC(=O)Nc4ccc(Cl)cn4)c(Cl)c3)c2cc1OC [Example 87, N-{2-Chloro-4-[(6,7-dimethoxy-4-quinazolinyl)oxy]phenyl}-N′-(5-chloro-2-pyridyl)urea] | 6.96 | 7.24 |  |
| CCCCNC(=O)Nc1ccc(Oc2ncnc3cc(OC)c(OC)cc23)cc1F [Example 89, N-Butyl-N′-{4-[(6,7-dimethoxy-4-quinazolinyl)oxy]-2-fluorophenyl}urea] | 7.62 | 7.35 | 40 |
| CCC(C)NC(=O)Nc1ccc(Oc2ncnc3cc(OC)c(OC)cc23)cc1F (stereo not drawn) [Example 90, N-(sec-Butyl)-N′-{4-[(6,7-dimethoxy-4-quinazolinyl)oxy]-2-fluorophenyl}urea] | 7.24 | 7.38 |  |
| C#CCNC(=O)Nc1ccc(Oc2ncnc3cc(OC)c(OC)cc23)cc1F [Example 92, N-{4-[(6,7-Dimethoxy-4-quinazolinyl)oxy]-2-fluorophenyl}-N′-(2-propynyl)urea] | 7.20 | 7.34 |  |
| COc1cc2ncnc(Oc3ccc(NC(=O)NCc4ccc(F)cc4F)c(F)c3)c2cc1OC [Example 93, N-(2,4-Difluorobenzyl)-N′-{4-[(6,7-dimethoxy-4-quinazolinyl)oxy]-2-fluorophenyl}urea] | 7.43 | 7.85 | 29 |
| COc1cc2ncnc(Oc3ccc(NC(=O)Nc4ccc(F)cc4F)c(F)c3)c2cc1OC [Example 94, N-(2,4-Difluorophenyl)-N′-{4-[(6,7-dimethoxy-4-quinazolinyl)oxy]-2-fluorophenyl}urea] | 8.64 | 8.74 | 29 |
| COc1cc2ncnc(Oc3ccc(NC(=O)Nc4ccccc4C)c(F)c3)c2cc1OC [Example 95, N-{4-[(6,7-Dimethoxy-4-quinazolinyl)oxy]-2-fluorophenyl}-N′-(2-methylphenyl)urea] | 8.42 | 8.57 |  |
| COc1ccccc1NC(=O)Nc1ccc(Oc2ncnc3cc(OC)c(OC)cc23)cc1F [Example 96, N-{4-[(6,7-Dimethoxy-4-quinazolinyl)oxy]-2-fluorophenyl}-N′-(2-methoxyphenyl)urea] | 9.40 | > 9.00 |  |
| CCCNC(=O)Nc1ccc(Oc2ncnc3cc(OC)c(OC)cc23)c(C)c1 [Example 97, N-{4-[(6,7-Dimethoxy-4-quinazolinyl)oxy]-3′-methylphenyl}-N′-propylurea] | 6.31 | 6.29 | 48 |
| CCCCNC(=O)Nc1ccc(Oc2ncnc3cc(OC)c(OC)cc23)c(C)c1 [Example 98, N-Butyl-N′-{4-[(6,7-dimethoxy-4-quinazolinyl)oxy]-3-methylphenyl}urea] | 6.48 | 6.35 | 38 |
| COc1ccccc1NC(=O)Nc1ccc(Oc2ncnc3cc(OC)c(OC)cc23)cc1C [Example 106, N-{4-[(6,7-Dimethoxy-4-quinazolinyl)oxy]-2-methylphenyl}-N′-(2-methoxyphenyl)urea] | 8.82 | > 9.00 |  |
